In ChEMBL document CHEMBL5465560, “Selectivity Literature for EUbOPEN Chemogenomic Library” (2024) one finds dTM, % of control and % of inhibition data, which are given here for six molecules.

Assay [1] has as its target T1, Aurora kinase A (Homo sapiens) (UniProt O14965).
T1 sequence (whole entry): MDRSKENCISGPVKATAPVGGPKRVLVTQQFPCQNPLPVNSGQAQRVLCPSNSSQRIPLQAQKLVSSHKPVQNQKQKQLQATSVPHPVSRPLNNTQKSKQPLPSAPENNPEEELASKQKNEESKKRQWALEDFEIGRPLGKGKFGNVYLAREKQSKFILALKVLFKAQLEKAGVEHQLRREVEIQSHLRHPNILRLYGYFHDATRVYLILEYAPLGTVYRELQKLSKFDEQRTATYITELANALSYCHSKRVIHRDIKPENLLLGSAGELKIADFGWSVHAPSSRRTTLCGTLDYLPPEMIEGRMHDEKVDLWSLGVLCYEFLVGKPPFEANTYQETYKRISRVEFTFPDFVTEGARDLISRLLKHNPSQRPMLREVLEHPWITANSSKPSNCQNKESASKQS
Nature of the assay: Selectivity interaction (Kinase panel (DSF assay)) EUB0001558a STK6. Background: DSF heats the sample and reads unfolding from a dye or from intrinsic fluorescence.

Assay [2] addresses BMP-2-inducible protein kinase (Homo sapiens) (UniProt Q9NSY1). Nature of the assay: Selectivity interaction (Kinase panel (DSF assay)) EUB0001558a BMP2K.
For assay [3], the target named is Serine/threonine-protein kinase PLK3 (Homo sapiens, UniProt Q9H4B4). Nature of the assay: Selectivity interaction (Millipore kinase profiler) EUB0000124b PLK3. Particulars: at 10 µM.
Serine/threonine-protein kinase PLK3, sequence (Q9H4B4 whole entry, looked up): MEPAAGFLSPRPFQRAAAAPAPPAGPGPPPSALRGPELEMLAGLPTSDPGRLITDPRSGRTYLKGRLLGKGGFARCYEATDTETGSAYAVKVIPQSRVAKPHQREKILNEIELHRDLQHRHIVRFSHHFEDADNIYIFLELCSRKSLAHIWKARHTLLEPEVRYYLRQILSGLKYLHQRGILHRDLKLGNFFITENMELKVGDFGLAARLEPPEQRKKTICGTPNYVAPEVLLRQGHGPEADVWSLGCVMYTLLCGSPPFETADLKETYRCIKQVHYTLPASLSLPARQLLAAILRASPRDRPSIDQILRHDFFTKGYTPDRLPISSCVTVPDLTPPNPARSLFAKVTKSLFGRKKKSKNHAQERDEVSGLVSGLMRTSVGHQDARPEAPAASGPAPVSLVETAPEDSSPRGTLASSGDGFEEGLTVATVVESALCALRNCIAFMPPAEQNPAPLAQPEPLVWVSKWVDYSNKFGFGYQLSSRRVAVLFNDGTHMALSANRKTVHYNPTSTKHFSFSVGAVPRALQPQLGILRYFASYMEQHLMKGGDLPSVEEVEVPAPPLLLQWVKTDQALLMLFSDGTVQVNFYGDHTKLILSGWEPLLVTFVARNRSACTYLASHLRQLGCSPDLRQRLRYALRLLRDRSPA
In assay [4] the target is T2, MAP kinase-activated protein kinase 5 (Homo sapiens) (UniProt Q8IW41).
T2 sequence (whole entry): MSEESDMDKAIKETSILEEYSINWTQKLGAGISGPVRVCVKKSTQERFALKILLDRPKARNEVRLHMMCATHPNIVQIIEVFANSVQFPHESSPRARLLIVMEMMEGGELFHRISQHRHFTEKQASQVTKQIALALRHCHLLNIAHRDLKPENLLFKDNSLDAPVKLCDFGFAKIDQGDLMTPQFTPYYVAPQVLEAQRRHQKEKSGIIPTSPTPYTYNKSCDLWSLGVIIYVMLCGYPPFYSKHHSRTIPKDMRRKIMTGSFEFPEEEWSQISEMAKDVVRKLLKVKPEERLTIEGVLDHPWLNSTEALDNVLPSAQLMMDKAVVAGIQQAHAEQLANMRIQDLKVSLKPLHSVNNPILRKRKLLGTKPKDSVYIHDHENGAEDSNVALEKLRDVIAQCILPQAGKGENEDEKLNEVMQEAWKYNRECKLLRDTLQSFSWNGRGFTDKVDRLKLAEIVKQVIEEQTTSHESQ
Nature of the assay: Selectivity interaction (KinomeScan (DiscoverX)) EUB0000092b MAPKAPK5. The following applies: at 10 µM.

For assay [5], the target named is T3, Dual specificity tyrosine-phosphorylation-regulated kinase 2 (Homo sapiens) (UniProt Q92630).
T3 sequence (whole entry): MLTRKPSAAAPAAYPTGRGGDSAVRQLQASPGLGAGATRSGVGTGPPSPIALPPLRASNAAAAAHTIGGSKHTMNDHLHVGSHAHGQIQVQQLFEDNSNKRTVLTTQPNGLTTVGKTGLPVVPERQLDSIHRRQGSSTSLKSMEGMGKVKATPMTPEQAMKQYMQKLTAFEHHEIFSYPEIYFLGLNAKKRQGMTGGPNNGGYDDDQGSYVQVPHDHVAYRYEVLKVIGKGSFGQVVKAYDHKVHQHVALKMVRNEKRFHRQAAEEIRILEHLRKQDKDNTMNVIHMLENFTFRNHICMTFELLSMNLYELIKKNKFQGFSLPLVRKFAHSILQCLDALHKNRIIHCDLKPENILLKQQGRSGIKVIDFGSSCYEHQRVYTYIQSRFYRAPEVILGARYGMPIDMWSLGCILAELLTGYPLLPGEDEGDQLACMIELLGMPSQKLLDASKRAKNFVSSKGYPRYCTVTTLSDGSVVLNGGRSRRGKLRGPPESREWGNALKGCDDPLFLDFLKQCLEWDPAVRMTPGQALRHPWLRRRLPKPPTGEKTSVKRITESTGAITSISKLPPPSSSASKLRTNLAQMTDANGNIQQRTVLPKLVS
Nature of the assay: Selectivity interaction (KinomeScan (DiscoverX)) EUB0000655a DYRK2. Particulars: at 10 µM.

In assay [6] the target is Fibroblast growth factor receptor 4 (Homo sapiens, UniProt P22455). Nature of the assay: Selectivity interaction (KinomeScan (DiscoverX)) EUB0000045b FGFR4.
Fibroblast growth factor receptor 4, sequence (P22455 22-802 limits assumed): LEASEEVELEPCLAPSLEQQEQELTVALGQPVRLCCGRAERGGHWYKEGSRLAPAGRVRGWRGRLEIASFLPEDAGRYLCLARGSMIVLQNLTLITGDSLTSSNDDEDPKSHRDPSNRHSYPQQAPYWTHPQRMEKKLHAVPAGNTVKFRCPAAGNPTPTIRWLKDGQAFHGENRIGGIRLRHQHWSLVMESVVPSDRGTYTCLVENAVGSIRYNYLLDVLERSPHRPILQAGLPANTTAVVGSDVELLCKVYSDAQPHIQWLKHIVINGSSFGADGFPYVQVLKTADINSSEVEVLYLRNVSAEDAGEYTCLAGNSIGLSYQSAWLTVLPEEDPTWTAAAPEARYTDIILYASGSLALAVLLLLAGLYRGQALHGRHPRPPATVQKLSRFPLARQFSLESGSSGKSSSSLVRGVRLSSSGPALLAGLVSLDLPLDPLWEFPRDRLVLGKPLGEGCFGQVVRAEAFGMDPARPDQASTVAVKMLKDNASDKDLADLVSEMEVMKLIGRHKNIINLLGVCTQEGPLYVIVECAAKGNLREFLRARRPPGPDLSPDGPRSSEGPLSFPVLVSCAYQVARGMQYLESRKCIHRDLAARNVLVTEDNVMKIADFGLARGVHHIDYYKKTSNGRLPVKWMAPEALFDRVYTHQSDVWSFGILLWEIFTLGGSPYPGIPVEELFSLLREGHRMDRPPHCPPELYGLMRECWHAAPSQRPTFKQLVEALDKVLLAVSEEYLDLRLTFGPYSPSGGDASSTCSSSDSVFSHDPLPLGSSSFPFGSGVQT
Assay [7] addresses Ribosomal protein S6 kinase alpha-1 (Homo sapiens, UniProt Q15418). Nature of the assay: Selectivity interaction (ActivX KiNativ screen (kinase selectivity in THP-1 cell lysates)) EUB0000639a RPS6KA1. Format: subcellular. The following applies: lysate, at 0.04 µM.
For assay [8], the target named is Serine/threonine-protein kinase SMG1 (Homo sapiens) (UniProt Q96Q15). Nature of the assay: Selectivity interaction (ActivX KiNativ screen (kinase selectivity in THP-1 cell lysates)) EUB0000639a SMG1. Format: subcellular. The following applies: lysate, at 0.04 µM.
The target of assay [9] is BDNF/NT-3 growth factors receptor (Homo sapiens) (UniProt Q16620). Nature of the assay: Selectivity interaction (Kinase panel (Invitrogen)) EUB0000639a NTRK2. Particulars: at 200 nM.
BDNF/NT-3 growth factors receptor (Homo sapiens), sequence (Q16620 32-822 limits assumed): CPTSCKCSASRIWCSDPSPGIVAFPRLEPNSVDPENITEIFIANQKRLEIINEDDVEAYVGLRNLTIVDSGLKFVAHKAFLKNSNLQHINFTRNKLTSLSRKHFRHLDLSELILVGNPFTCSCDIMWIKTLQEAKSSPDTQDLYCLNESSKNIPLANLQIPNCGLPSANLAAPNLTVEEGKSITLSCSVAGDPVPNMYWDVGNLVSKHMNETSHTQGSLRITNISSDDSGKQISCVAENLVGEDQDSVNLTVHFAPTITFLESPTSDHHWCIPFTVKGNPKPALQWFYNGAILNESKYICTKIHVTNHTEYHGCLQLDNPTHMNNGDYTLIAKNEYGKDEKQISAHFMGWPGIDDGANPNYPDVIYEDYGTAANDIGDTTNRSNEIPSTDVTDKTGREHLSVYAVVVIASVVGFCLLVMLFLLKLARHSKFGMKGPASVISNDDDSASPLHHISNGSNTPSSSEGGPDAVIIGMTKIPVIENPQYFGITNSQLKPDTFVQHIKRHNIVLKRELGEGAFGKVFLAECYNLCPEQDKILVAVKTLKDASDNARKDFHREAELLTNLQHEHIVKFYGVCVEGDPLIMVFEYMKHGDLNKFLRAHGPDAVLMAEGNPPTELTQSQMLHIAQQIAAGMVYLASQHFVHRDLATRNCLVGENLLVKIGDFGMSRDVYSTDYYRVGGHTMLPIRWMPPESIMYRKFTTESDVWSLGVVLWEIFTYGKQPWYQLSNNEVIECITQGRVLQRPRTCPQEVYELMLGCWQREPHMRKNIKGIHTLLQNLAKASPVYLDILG

BMP-2-inducible protein kinase (Homo sapiens), sequence (Q9NSY1 whole entry, looked up): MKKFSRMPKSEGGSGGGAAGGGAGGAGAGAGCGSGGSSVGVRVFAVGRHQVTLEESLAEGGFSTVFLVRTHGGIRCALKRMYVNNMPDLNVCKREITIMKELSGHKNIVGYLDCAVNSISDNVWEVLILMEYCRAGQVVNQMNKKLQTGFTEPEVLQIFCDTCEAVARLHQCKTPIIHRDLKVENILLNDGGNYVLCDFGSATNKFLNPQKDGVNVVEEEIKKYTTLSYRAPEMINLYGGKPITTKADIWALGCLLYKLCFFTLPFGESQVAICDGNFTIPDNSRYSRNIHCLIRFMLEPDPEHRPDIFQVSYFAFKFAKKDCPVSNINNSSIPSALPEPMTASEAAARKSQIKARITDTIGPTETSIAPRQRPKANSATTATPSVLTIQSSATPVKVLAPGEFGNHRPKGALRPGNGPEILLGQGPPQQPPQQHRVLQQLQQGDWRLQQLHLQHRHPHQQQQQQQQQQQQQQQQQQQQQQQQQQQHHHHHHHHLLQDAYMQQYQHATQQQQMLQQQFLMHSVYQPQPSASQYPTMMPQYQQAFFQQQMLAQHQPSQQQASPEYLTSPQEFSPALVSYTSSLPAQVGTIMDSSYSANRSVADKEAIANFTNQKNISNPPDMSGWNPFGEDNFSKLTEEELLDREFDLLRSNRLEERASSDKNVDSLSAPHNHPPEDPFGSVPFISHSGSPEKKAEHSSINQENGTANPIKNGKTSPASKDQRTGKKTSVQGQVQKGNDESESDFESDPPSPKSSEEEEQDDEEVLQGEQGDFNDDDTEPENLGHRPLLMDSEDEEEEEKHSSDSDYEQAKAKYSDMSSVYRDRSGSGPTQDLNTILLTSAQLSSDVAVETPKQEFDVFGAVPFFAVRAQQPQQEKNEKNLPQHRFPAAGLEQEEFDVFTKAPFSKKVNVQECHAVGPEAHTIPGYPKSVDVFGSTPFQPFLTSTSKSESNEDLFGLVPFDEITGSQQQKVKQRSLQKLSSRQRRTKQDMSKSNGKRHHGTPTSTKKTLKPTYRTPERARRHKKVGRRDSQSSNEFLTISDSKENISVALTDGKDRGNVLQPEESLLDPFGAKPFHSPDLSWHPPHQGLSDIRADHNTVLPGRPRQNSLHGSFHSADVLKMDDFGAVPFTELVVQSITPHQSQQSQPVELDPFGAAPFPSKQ
Ribosomal protein S6 kinase alpha-1, sequence (Q15418 whole entry): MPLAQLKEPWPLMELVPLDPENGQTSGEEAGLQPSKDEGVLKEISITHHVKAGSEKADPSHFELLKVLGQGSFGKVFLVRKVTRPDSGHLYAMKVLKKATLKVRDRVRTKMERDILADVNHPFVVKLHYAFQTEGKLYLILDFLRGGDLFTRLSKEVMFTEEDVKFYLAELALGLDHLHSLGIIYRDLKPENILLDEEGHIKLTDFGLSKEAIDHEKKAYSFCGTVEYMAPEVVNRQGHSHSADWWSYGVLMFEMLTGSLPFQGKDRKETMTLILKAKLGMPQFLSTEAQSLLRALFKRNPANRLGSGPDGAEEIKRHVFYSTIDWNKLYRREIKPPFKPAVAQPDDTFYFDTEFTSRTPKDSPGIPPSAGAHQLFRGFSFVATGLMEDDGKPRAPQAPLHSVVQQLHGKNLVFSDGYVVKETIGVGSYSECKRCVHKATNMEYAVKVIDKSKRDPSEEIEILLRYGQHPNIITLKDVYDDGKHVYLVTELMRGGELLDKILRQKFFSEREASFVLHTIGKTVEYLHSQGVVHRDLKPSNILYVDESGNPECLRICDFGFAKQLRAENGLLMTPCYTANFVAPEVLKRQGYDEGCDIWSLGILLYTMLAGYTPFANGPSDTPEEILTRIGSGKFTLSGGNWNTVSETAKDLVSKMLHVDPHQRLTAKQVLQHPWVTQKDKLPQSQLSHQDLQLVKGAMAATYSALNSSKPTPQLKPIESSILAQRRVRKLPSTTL

Consider `CC(C)(O)[C@H](F)CN1Cc2cc(NC(=O)c3cnn4cccnc34)c(N3CCOCC3)cc2C1=O`, for which the dTM came to 3.3 K in assay [1] and 8.7 K in assay [2]. Turning to `CC(=O)Nc1cccc(-n2c(=O)n(C3CC3)c(=O)c3c(Nc4ccc(I)cc4F)n(C)c(=O)c(C)c32)c1`, the % of control in [3] was 91%.

In assay [4], `CCC(=O)N1CCN(c2ccc(-n3c(=O)ccc4cnc5ccc(-c6cnc7ccccc7c6)cc5c43)cc2C(F)(F)F)CC1` yielded a % of control of 100%. `CN(C)CCOc1ccc(-c2nc(-c3ccncc3)c(-c3ccc4c(c3)CC/C4=N\O)[nH]2)cc1` registered a % of control in assay [5] of 98%. Consider `C=CC(=O)Nc1cc(-n2c(=O)ccc3cnc4ccc(-c5ccc(NS(C)(=O)=O)cc5)cc4c32)ccc1C`, for which the % of control stood at 100% in assay [6] (at 1 µM) and 84% in assay [6] (at 10 µM). Regarding `CC[C@@H]1[C@H](F)C(=O)N[C@@H]1COc1nccc2cc(C(N)=O)c(OC)cc12` [ZIMLOVISERTIB], the results for the % of inhibition in assay [7], in [8] and in assay [9] were -5.9%, 4.1% and 15.8%, respectively.
